In patent publication US4256751A, “Tetrahydroisoquinoline derivatives” (Tanabe Seiyaku Co., Ltd., priority 1978, dated 1981):

Tests used:
[1] = test system: ADP-induced platelet aggregation; assay: Platelet aggregation-inhibiting activity (ADP-induced, diluted platelet-rich plasma); type: cell-based, dog (male beagle); conditions: Canis lupus familiaris, test compound solution 100 μg/ml, added 2 minutes before ADP, beagle PRP, read-out: Platelet aggregation inhibiting activity (percentage inhibition of the second wave of ADP-induced platelet aggregation)
Procedure: The bottom layer was further centrifuged at 1000×g for 15 minutes to give platelet-poor plasma (PPP) as the supernatant solution.

ACE = assay: ACE-inhibitory activity in vivo (pressor response to angiotensin I); set-up: species or system rat (normotensive); conditions: 0.1 mg/kg intravenously; angiotensin I 300 ng/kg i.v.; anesthetized normotensive rats
Procedure: Normotensive rats weighing 300-400 g were anesthetized with urethane(1.5 g/kg, s.c.), and angiotensin I (300 ng/kg) was injected into the femoral vein of the rats. The pressor response to angiotensin I was measured with a pressure transducer connected to the carotid artery. Then, a test compound was injected intravenously thereto at a dose of 0.1 mg/kg, and angiotensin I (300 ng/kg) was further injected intravenously at intervals. The ACE-inhibitory activity of the test compound was estimated from the pressor responses to angiotensin I which were obtained before and after intraveous injection of the test compound.

[2] = test system: spontaneously hypertensive rats (SHR); assay: Hypotensive activity in SHR; type: in vivo, rat (SHR); conditions: 50 mg/kg orally
Procedure: A test compound (dose: 50 mg/kg) suspended in an aqueous carboxymethylcellulose solution was administered orally to spotaneously hypertensive rats (SHR) fasted for a day. The systolic blood pressure of the rats was measured by the tail plethysmographic technique (The Journal of Laboratory and Clinic Medicine 78(1971), page 957). The hypotensive activity of the test compound was estimated from the decreased level of blood pressure.

mice = assay: Oral toxicity in mice; type: in vivo; conditions: 3 g/kg
From the text: . Moreover, the compound (I) of the present invention decreases aggregation of blood platelets and can be used to improve blood flow disturbances or other vascular diseases due to the formation of platelet aggregates (i.e., thrombus). Since the hypertensive disease is largely found in the aged subjects who show an increased tendency to capillary fragility or thrombosis, therefore, the compound (I) of the invention is useful to prevent, in addition to the treatment of hypertension, the genesis of thrombosis and other occlusive vascular diseases of such subjects. Further, the toxicity of the compound (I) is considerably low. […]

C[C@H](CS)C(=O)N1Cc2ccccc2C[C@H]1C(=O)O [(3S)-2-[(2S)-3-mercapto-2-methyl-propionyl]-1,2,3,4-tetrahydroisoquinoline-3-carboxylic acid]
inhibition at 100 µg/mL [1]: 86%
ACE-inhibitory activity in vivo (percentage inhibition of ACE activity in vivo) (ACE): 90%
Hypotensive activity in SHR: Duration of action [2]: > 6 h
Hypotensive activity in SHR: Decrease in blood pressure ([2]; systolic, tail plethysmographic): ca. 20%
mortality five days after oral administration (mice): no mouse died
